Results as given in patent publication US12138250B2, “Formulations of 6-(2-hydroxy-2-methylpropoxy)-4-(6-(6-((6-methoxypyridin-3-yl)methyl)-3,6-diazabicyclo[3.1.1]heptan-3-yl)pyridin-3-yl)pyrazolo[1,5-a]pyridine-3-carbonitrile” (Loxo Oncology, Inc., priority 2017, dated 2024).
Like-named read-outs stand apart in the source and are kept apart here. Values belong to the compound of their own block, whether it stands above or below them.

How the values were obtained:
[1] = Gravimetric Vapor Sorption (GVS); assay type: physicochemical
Procedure: Approximately 10-20 mg of sample was placed into a mesh vapor sorption balance pan and loaded into an IGASorp Moisture Sorption Analyzer balance by Hiden Analytical. The sample was subjected to a ramping profile from 40-90% RH at 10% increments, maintaining the sample at each step until a stable weight had been achieved (98% step completion). After completion of the sorption cycle, the sample was dried using the same procedure to 0% RH, and finally taken back to the starting point of 40% RH. The weight change during the sorption/desorption cycles were plotted, allowing for the hygroscopic nature of the sample to be determined.

[2] = salt screen, succinic acid
[3] = Solvent solubility screen in 32 solvent systems; assay type: physicochemical; conditions: for solubility: 40 °C, thermodynamic from solid, read-out: Approximate solubility
Procedure: A solvent solubility screen was conducted in 32 solvent systems as follows. […] Between each addition, the mixture was checked for dissolution. If no dissolution was apparent, the mixture was heated to around 40° C. and checked again. This procedure was continued until dissolution was observed or until 100 volumes of solvent had been added. Undissolved material from the solubility screen was isolated and analyzed by XRPD.

[4] = Overnight storage at 40° C. and 75% RH with XRPD reanalysis (salt screen, temperature cycling polymorph screen); assay type: physicochemical; conditions: for Post-temperature cycling (XRPD form): analyzed wet; for Post-stability tests (XRPD form): stored at 40° C. and 75% RH overnight
Procedure: Each mixture was filtered and isolated solids were analyzed (wet) by XRPD to determine crystallinity and form. Samples in which solid was not observed were stored uncapped to allow solvent evaporation. […] The samples were then reanalyzed by XRPD to determine any changes in form or crystallinity. The observations and results, including the different diffractogram patterns observed during the screen, are shown in Tables 8-32, below, and FIGS. 6A-6B through 29A-29B. After temperature cycling, each mixture was filtered and isolated solids were analyzed (wet) by XRPD to determine crystallinity and form. The samples were then stored at 40° C. and 75% RH overnight and reanalyzed by XRPD to determine any changes in form or crystallinity. Results are shown in Table 39, below, and FIGS. 40A-40D.

[5] = Dynamic Vapor Sorption (DVS); assay type: physicochemical
Procedure: Approximately 10 mg of sample was placed into a mesh vapor sorption balance pan and loaded into a DVS-1 dynamic vapor sorption balance by Surface Measurement Systems. The sample was subjected to a ramping profile from 40-90% relative humidity (RH) at 10% increments, maintaining the sample at each step until a stable weight had been achieved (99.5% step completion). After completion of the sorption cycle, the sample was dried using the same procedure to 0% RH and then a second sorption cycle back to 40% RH. The weight change during the sorption/desorption cycles were plotted, allowing for the hygroscopic nature of the sample to be determined. XRPD analysis was then carried out on any solid retained.

form or crystallinity by XRPD post-GVS analysis [1]: No change in form | hygroscopicity by GVS [1]: moderately hygroscopic | weight increase by GVS ([1]; at 90% RH): 2.6%
SMILES: COc1ccc(CN2C3CC2CN(c2ccc(-c4cc(OCC(C)(C)O)cn5ncc(C#N)c45)cn2)C3)cn1 [Form 1]

XRPD post-cycling ([2]; IPA/water (10%)): Form 8 | XRPD post-cycling ([2]; MeCN/water (20%)): Form 8 | XRPD post-stability ([2]; MeCN/water (20%), overnight 40° C. and 75% RH): Form 8
SMILES: O=C(O)CCC(=O)O [Succinic acid]

solubility ([3]; aqueous with cosolvent or surfactant or cyclodextrin, solvent Acetone:Water (50%)): < 5000 µg/mL | solubility ([3]; organic solvent or mixture, solvent 1,4-Dioxane, (P) = partial solubility at 100 volumes): < 5000 µg/mL | solubility ([3]; organic solvent or mixture, solvent 1-Butanol): < 5000 µg/mL | solubility ([3]; organic solvent or mixture, solvent 1-Propanol): < 5000 µg/mL | solubility ([3]; organic solvent or mixture, solvent 2-Ethoxyethanol, (P) = partial solubility at 100 volumes): < 5000 µg/mL | solubility ([3]; organic solvent or mixture, solvent 2-Methyl THF, (P) = partial solubility at 100 volumes): < 5000 µg/mL | solubility ([3]; organic solvent or mixture, solvent Acetone): < 5000 µg/mL | solubility ([3]; organic solvent or mixture, solvent Anisole, (P) = partial solubility at 100 volumes): < 5000 µg/mL | solubility ([3]; organic solvent or mixture, solvent CHCl3, (P) = partial solubility at 100 volumes): < 5000 µg/mL | solubility ([3]; organic solvent or mixture, solvent Cyclohexane): < 5000 µg/mL | solubility ([3]; organic solvent or mixture, solvent Cyclohexanone, (P) = partial solubility at 100 volumes): < 5000 µg/mL | solubility ([3]; organic solvent or mixture, solvent DCM, (P) = partial solubility at 100 volumes): < 5000 µg/mL | solubility ([3]; organic solvent or mixture, solvent EtOAc): < 5000 µg/mL | solubility ([3]; organic solvent or mixture, solvent Ethanol): < 5000 µg/mL | solubility ([3]; organic solvent or mixture, solvent IPA): < 5000 µg/mL | solubility ([3]; organic solvent or mixture, solvent MEK): < 5000 µg/mL | solubility ([3]; organic solvent or mixture, solvent MIBK): < 5000 µg/mL | solubility ([3]; organic solvent or mixture, solvent MeOAc): < 5000 µg/mL | solubility ([3]; organic solvent or mixture, solvent Nitromethane, (P) = partial solubility at 100 volumes): < 5000 µg/mL | solubility ([3]; organic solvent or mixture, solvent THF, (P) = partial solubility at 100 volumes): < 5000 µg/mL | solubility ([3]; solvent Water): < 5000 µg/mL | solubility in solvent solubility screen ([3]; DMSO, NMP, and THF/water (1%)): moderate solubility | solubility in solvent solubility screen ([3]; majority of solvent systems investigated): low solubility | Post-temperature cycling (XRPD form) ([4]; slurry in 1,4-Dioxane, 40° C./RT cycles 72 hours): Weak diffraction | Post-temperature cycling (XRPD form) ([4]; slurry in 1-Butanol, 40° C./RT cycles 72 hours): Weak diffraction | Post-temperature cycling (XRPD form) ([4]; slurry in 1-Propanol, 40° C./RT cycles 72 hours): Form 8 | Post-temperature cycling (XRPD form) ([4]; slurry in 2-Ethoxyethanol, 40° C./RT cycles 72 hours): Weak diffraction | Post-temperature cycling (XRPD form) ([4]; slurry in 2-Methyl THF, 40° C./RT cycles 72 hours): Weak diffraction | Post-temperature cycling (XRPD form) ([4]; slurry in Acetone, 40° C./RT cycles 72 hours): Weak diffraction | Post-temperature cycling (XRPD form) ([4]; slurry in Acetone:Water (50%), 40° C./RT cycles 72 hours): Form 1 | Post-temperature cycling (XRPD form) ([4]; slurry in Anisole, 40° C./RT cycles 72 hours): Form 1 | Post-temperature cycling (XRPD form) ([4]; slurry in CHCl3, 40° C./RT cycles 72 hours): Amorphous | Post-temperature cycling (XRPD form) ([4]; slurry in Cyclohexane, 40° C./RT cycles 72 hours): Form 1 | Post-temperature cycling (XRPD form) ([4]; slurry in Cyclohexanone, 40° C./RT cycles 72 hours): Weak diffraction | Post-temperature cycling (XRPD form) ([4]; slurry in DCM, 40° C./RT cycles 72 hours): Amorphous | Post-temperature cycling (XRPD form) ([4]; slurry in DMSO, 40° C./RT cycles 72 hours): Form 1 | Post-temperature cycling (XRPD form) ([4]; slurry in EtOAc, 40° C./RT cycles 72 hours): Form 1 | Post-temperature cycling (XRPD form) ([4]; slurry in Ethanol, 40° C./RT cycles 72 hours): Weak diffraction | Post-temperature cycling (XRPD form) ([4]; slurry in IPA, 40° C./RT cycles 72 hours): Form 8 | Post-temperature cycling (XRPD form) ([4]; slurry in MEK, 40° C./RT cycles 72 hours): Weak diffraction | Post-temperature cycling (XRPD form) ([4]; slurry in MIBK, 40° C./RT cycles 72 hours): Form 1 | Post-temperature cycling (XRPD form) ([4]; slurry in MeCN:Water (20%), 40° C./RT cycles 72 hours): Weak diffraction | Post-temperature cycling (XRPD form) ([4]; slurry in MeOAc, 40° C./RT cycles 72 hours): Weak diffraction | Post-temperature cycling (XRPD form) ([4]; slurry in Nitromethane, 40° C./RT cycles 72 hours): Weak diffraction | Post-temperature cycling (XRPD form) ([4]; slurry in THF, 40° C./RT cycles 72 hours): Weak diffraction | Post-temperature cycling (XRPD form) ([4]; slurry in THF:Water (1%), 40° C./RT cycles 72 hours): Weak diffraction | Post-temperature cycling (XRPD form) ([4]; slurry in Water, 40° C./RT cycles 72 hours): Form 1 | Post-stability tests (XRPD form) ([4]; solid from 1,4-Dioxane): Form 1 | Post-stability tests (XRPD form) ([4]; solid from 1-Butanol): Form 1 | Post-stability tests (XRPD form) ([4]; solid from 1-Propanol): Form 1 | Post-stability tests (XRPD form) ([4]; solid from 2-Ethoxyethanol): Form 1 | Post-stability tests (XRPD form) ([4]; solid from 2-Methyl THF): Form 1 | Post-stability tests (XRPD form) ([4]; solid from Acetone:Water (50%)): Form 1 | Post-stability tests (XRPD form) ([4]; solid from Acetone): Form 1 | Post-stability tests (XRPD form) ([4]; solid from Anisole): Form 1 | Post-stability tests (XRPD form) ([4]; solid from CHCl3): Form 1 | Post-stability tests (XRPD form) ([4]; solid from Cyclohexane): Form 1 | Post-stability tests (XRPD form) ([4]; solid from Cyclohexanone): Form 1 | Post-stability tests (XRPD form) ([4]; solid from DCM): Form 1 | Post-stability tests (XRPD form) ([4]; solid from DMSO): Form 1 | Post-stability tests (XRPD form) ([4]; solid from EtOAc): Form 1 | Post-stability tests (XRPD form) ([4]; solid from Ethanol): Form 1 | Post-stability tests (XRPD form) ([4]; solid from IPA): Form 1 | Post-stability tests (XRPD form) ([4]; solid from MEK): Form 1 | Post-stability tests (XRPD form) ([4]; solid from MIBK): Form 1 | Post-stability tests (XRPD form) ([4]; solid from MeCN:Water (20%)): Form 1 | Post-stability tests (XRPD form) ([4]; solid from MeOAc): Form 1 | Post-stability tests (XRPD form) ([4]; solid from Nitromethane): Form 1 | Post-stability tests (XRPD form) ([4]; solid from THF): Form 1 | Post-stability tests (XRPD form) ([4]; solid from Water): Form 1 | change in form post-DVS ([5]; XRPD after DVS): No change in Form | weight increase by DVS ([5]; at 90% RH, material prepared as in Example 1, identified as Form 1): around 3.6% | hygroscopicity by DVS ([5]; material prepared as in Example 1, identified as Form 1): moderately hygroscopic
SMILES: COc1ccc(CN2C3CC2CN(c2ccc(-c4cc(OCC(C)(C)O)cn5ncc(C#N)c45)cn2)C3)cn1 [compound of Formula (I), 6-(2-hydroxy-2-methylpropoxy)-4-(6-(6-((6-methoxypyridin-3-yl)methyl)-3,6-diazabicyclo[3.1.1]heptan-3-yl)pyridin-3-yl)pyrazolo[1,5-a]pyridine-3-carbonitrile]
